In publication PMC10818749, “Toxicity Studies of Cardiac-Targeting Peptide Reveal a Robust Safety Profile” (Pharmaceutics, 2024):
Ends that are not written are not given here.

Legend:
[1] = tested on: human left ventricular myocyte cell line; assay: Fluorescence-activated cell sorting (FACS) live-dead viability; format: cell-based; conditions: 10 µM, 30 min incubation, live-dead stain, biological triplicates and technical quadruplicates (n = 4), vs no treatment or vehicle
Protocol: Fluorescence-Activated Cell Sorting Assays: CTP was tested in a human left ventricular myocyte cell line (Celprogen, Torrance, CA, USA; cat #36044-15) for uptake and assessment of its effects on cell viability. Cells were plated onto 6-well plates at a density of 100,000 cells per well and incubated overnight at 37 °C/5% CO2. The following day media was replaced with fresh media containing 10 µM CTP-Cy5.5, or a random (RAN-CY5.5) peptide. A yellow live-dead stain (Invitrogen, Carlsbad, CA, USA; cat #L34968) was added to all wells, including the negative control or vehicle only treated controls, and cells were incubated for 30 min, after which media aspirated, cells washed 3× with pre-warmed phosphate-buffered saline (PBS), trypsinized, and collected. After collection, cells were washed once with PBS, fixed with 2% paraformaldehyde at room temperature for 10 min, washed once again and resuspended in 1000 µL of PBS. Fluorescence activated cell sorting (FACS) was performed using lasers selected for live-dead and Cy5.5 fluorophores, and 10,000 cells counted in Fortessa. The data generated were gated on the presence of the live-dead stain providing the percent viability of cells [(live/(live + dead cells)) × 100] after treatment with various peptides.

ADRB1 = target: T1, ADRB1 (Homo sapiens, UniProt P08588); assay: ADRB1 GPCR cAMP modulation assay; format: cell-based; conditions: compared to the controls
T1 construct: host or cells: cAMP Hunter cell line
T1 sequence (P08588 whole entry): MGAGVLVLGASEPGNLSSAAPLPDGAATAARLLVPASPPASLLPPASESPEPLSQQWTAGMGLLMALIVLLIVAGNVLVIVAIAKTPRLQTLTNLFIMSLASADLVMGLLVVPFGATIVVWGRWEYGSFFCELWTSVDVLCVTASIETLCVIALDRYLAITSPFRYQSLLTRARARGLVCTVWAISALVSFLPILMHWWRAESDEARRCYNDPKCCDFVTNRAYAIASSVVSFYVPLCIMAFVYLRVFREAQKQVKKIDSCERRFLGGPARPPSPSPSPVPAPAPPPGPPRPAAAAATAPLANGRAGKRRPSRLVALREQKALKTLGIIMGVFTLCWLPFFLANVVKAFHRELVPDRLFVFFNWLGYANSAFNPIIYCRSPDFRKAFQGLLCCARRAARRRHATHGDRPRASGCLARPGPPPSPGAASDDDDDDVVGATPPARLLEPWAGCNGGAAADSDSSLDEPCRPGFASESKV
Protocol: GPCR cAMP Modulation Assays: cAMP Hunter cell lines were grown, plated, and subjected to Eurofins’ DiscoverX HitHunter cAMP XS+ assay. Gs agonist activity, Gi agonist activity, and antagonist activity-induced assays were read using chemiluminescent signal detection. The percentage of activity was calculated for Gs and Gi agonist assays, and the percentage of inhibition was calculated for Gs antagonist assays. […]
cAMP Second ary Messenger Assay pound results in the release of calcium from intracellular stores and DiscoverX has developed a panel of cell lines stably expressing non- an increase in dye fluorescence that is measured in real-time. tagged GPCRs that endogenously signal through cAMP. […]
The enzyme is split into two complementary portions: Enzyme Ac-ceptor (EA) and Enzyme Donor (ED). […] Active enzyme can then convert a chemilumines-cent substrate, generating an output signal detectable on a standard The NHR is tagged with the ProLink™ (PK) component of our EFC microplate reader. assay system, and the SRCP domain is fused to the Enzyme Ac-ceptor component (EA) expressed in the nucleus. […]

Sequence: APWHLSSQYSRT [CTP]
- cell viability [1]: remained unchanged
- agonist or antagonist action (ADRB1): no significant action as either an agonist or antagonist
